Source: PMC4499427 (Iranian Journal of Pharmaceutical Research : IJPR, 2015)
In brackets after ≈: the same amount, converted by molar mass. Like-named read-outs stand apart in the source and are kept apart here.

Tests used:
[1] = tested on: Mycobacterium bovis BCG (1173P2); test: microbe, parasite or virus in culture; type: cell-based; conditions: for MIC: Mycobacterium tuberculosis variant bovis BCG, BCG
[2] = Cytotoxicity assay, MTT method; type: cell-based; conditions: mouse, L929 fibroblast cells, Fibroblast L929 cell line
Protocol: (§1) The synthesized derivatives were assayed for their toxicity on Fibroblast L929 cell line by MTT [[…]] method. The cells were grown in RPMI1640 medium at 37 °C under 5% CO2 supplemented with 10% heat inactivated fetal bovine serum (FBS), 100 U/mL penicillin and 100 µg/mL streptomycin. Then, the cells were seeded into 96-well plates at a concentration of 6000 cells/well and allowed to incubate for 24 h. The medium was then discarded and different concentrations of test compounds in complete medium were added to each well. […] The produced formazan crystals were dissolved in 100 µL of DMSO. Plates were incubated for 20 min at 37 °C and the optical densities were read at 570 nm with a reference wavelength of 630 nm as background using a spectrophotometer plate reader (Infinite® M200, TECAN). Doxorubicin and cisplatin were used as positive controls and DMSO as the solvent of the test compounds and its final concentration was less than 0.2%. IC50 was calculated by GraphPad Prism 5.04 software. All the tests were performed in triplicates.

[3] = tested on: Fibroblast L929 cell line; test: Cytotoxicity assay, MTT method; type: cell-based; conditions: 48 h
Protocol: as §1

[4] = 24 h, read-out: Antimycobacterial activity MIC
[5] = 48 h, read-out: Antimycobacterial activity MIC
[6] = Mycobacterium bovis BCG, read at 24 h after Alamar blue
[7] = Mycobacterium bovis BCG, read at 48 h after Alamar blue
[8] = Mycobacterium bovis BCG, reading time not given

Row | SMILES | MIC [1, 4] | MIC [1, 5] | melting point | IC50 at 48 h [2] | further results
1 | S=c1[nH]nc2n1N=C(c1ccccc1)CC2 [IIa, 6-phenyl-7,8-dihydro-[1,2,4]triazolo[4,3-b]pyridazine-3-thione] | 62.5 µg/mL (≈ 271 µM) | 62.5 µg/mL (≈ 271 µM) | 253 °C (dec.) | > 100 µg/mL | MIC ([1]; read-out: MIC value): 62.5 µg/mL (≈ 271 µM)
2 | Nn1cnnc1S [Ia, 4-amino-1,2,4-triazole-5-thione] | 62.5 µg/mL (≈ 538 µM) | 62.5 µg/mL (≈ 538 µM) |  | > 100 µg/mL | 
3 | S=c1[nH]nc2n1N=C(c1ccc(Cl)cc1)CC2 [IIb, 6-(4-chlorophenyl)-7,8-dihydro-[1,2,4]triazolo[4,3-b]pyridazine-3-thione] | > 500 µg/mL | > 500 µg/mL | 256 °C (dec.) | > 100 µg/mL | antimycobacterial activity (in words) ([1]; Mycobacterium bovis BCG): inactive
4 | S=c1[nH]ncn1/N=C/C=C/c1ccccc1 [IIIe, 4-((E)-3-phenylallylideneamino)-1,2,4-triazole-5-thione] | 62.5 µg/mL (≈ 271 µM) | 62.5 µg/mL (≈ 271 µM) |  | 42.6 µg/mL (≈ 185 µM) | MIC ([1]; read-out: MIC value): 62.5 µg/mL (≈ 271 µM)
5 | C[S+](C)[O-] [DMSO] |  |  |  |  | Antimycobacterial activity MIC ([1]; Mycobacterium bovis BCG, 24 h, negative control DMSO): 6.5/6.5 % v/v; Antimycobacterial activity MIC ([1]; Mycobacterium bovis BCG, 48 h, negative control DMSO): 6.5/6.5 % v/v
6 | CC(=O)Nc1ccc(C=Nn2cn[nH]c2=S)cc1 [IIId, 4-(4-acetamidobenzyldeneamino)-1,2,4-triazole-5-thione] |  |  |  |  | Antimycobacterial activity MIC [1, 6]: 125/125 µg/mL; Antimycobacterial activity MIC [1, 7]: 125/125 µg/mL; Cytotoxicity IC50 [3]: >100 µg/mL
7 | S=c1[nH]ncn1N=Cc1cccnc1 [IIIb, 4-(pyridin-3-ylmethyleneamino)-1,2,4-triazole-5-thione] | 125 µg/mL (≈ 609 µM) | 125 µg/mL (≈ 609 µM) | 157 °C (dec.) | > 100 µg/mL | 
8 | Nn1c(Cc2c[nH]c3ccccc23)n[nH]c1=S [Id, 4-amino-3-(indol-3-ylmethyl)-1,2,4-triazole-5-thione] | 62.5 µg/mL (≈ 255 µM) | 62.5 µg/mL (≈ 255 µM) | 172 to 175 °C | > 100 µg/mL | 
9 | CC[C@@H](CO)NCCN[C@@H](CC)CO [Ethambutol, reference compound] | 0.75 µg/mL (≈ 3.67 µM) | 0.75 µg/mL (≈ 3.67 µM) |  |  | 
10 | Nn1c(C(O)c2ccccc2)n[nH]c1=S (centres unmarked) [Ie, 4-amino-3-(hydroxy(phenyl)methyl)-1,2,4-triazole-5-thione] | 62.5 µg/mL (≈ 281 µM) | 62.5 µg/mL (≈ 281 µM) | 167 to 170 °C | > 100 µg/mL | 
11 | Nn1c(Cc2cccs2)n[nH]c1=S [If, 4-amino-3-(thiophen-2-ylmethyl)-1,2,4-triazole-5-thione] | 62.5 µg/mL (≈ 294 µM) | 62.5 µg/mL (≈ 294 µM) | 154 to 157 °C | > 100 µg/mL | 
12 | S=c1[nH]ncn1N=Cc1ccncc1 [IIIc, 4-(pyridin-4-ylmethyleneamino)-1,2,4-triazole-5-thione] | 93.8 µg/mL (≈ 457 µM) | 125 µg/mL (≈ 609 µM) | 255 to 256 °C | > 100 µg/mL | 
13 | S=c1[nH]ncn1N=Cc1ccccn1 [IIIa, 4-(pyridin-2-ylmethyleneamino)-1,2,4-triazole-5-thione] | 62.5 µg/mL (≈ 305 µM) | 125 µg/mL (≈ 609 µM) |  | > 100 µg/mL | MIC ([1]; read-out: MIC value): 62.5 µg/mL (≈ 305 µM)
14 | CCc1n[nH]c(=S)n1N [Ic] |  |  |  |  | Antimycobacterial activity MIC [1, 6]: 62.5/62.5 µg/mL; Antimycobacterial activity MIC [1, 7]: 62.5/62.5 µg/mL; Cytotoxicity IC50 [3]: >100 µg/mL
15 | Cc1n[nH]c(=S)n1N [Ib] |  |  |  |  | IC50 value [1, 8]: 31.25 µg/mL (≈ 240 µM); MIC value [1, 8]: 31.25 µg/mL (≈ 240 µM); Antimycobacterial activity MIC [1, 6]: 31.25/31.25 µg/mL; Antimycobacterial activity MIC [1, 7]: 31.25/31.25 µg/mL; Cytotoxicity IC50 [3]: >100 µg/mL
